Where only a bound is given, the exact number is not on record here.

The nature of assay [1]: Inhibition of recombinant his tagged IMP1 (unknown origin) expressed in Escherichia coli (DE3) cells using FC5 as substrate by microplate reader assay.
Assay [2] in a line: Inhibition of recombinant NDM1 (unknown origin) expressed in Escherichia coli (DE3) cells using FC5 as substrate by microplate reader assay.
The nature of assay [3]: Inhibition of recombinant VIM-1 (unknown origin) expressed in Escherichia coli (DE3) cells using FC5 as substrate by microplate reader assay.
Assay [4] is described as follows: Inhibition of recombinant his tagged VIM-2 (unknown origin) expressed in Escherichia coli (DE3) cells using FC5 as substrate by microplate reader assay.
Assay [5] in a line: Inhibition of recombinant VIM-5 (unknown origin) expressed in Escherichia coli (DE3) cells using FC5 as substrate by microplate reader assay.
The test system of assay [6] is Escherichia coli. Description: Antibacterial activity against Escherichia coli BAA2452 expressing blaNDM-1 clinical isolates assessed as meropenem MIC incubated for 16 to 18 hrs by broth microdilution method. Format: functional. The following applies: time 16-18 hrs.
For assay [7], the system named is Enterobacterales. The assay is described as follows: Antibacterial activity against Carbapenem-Resistant Enterobacterales 19 expressing blaNDM-1 clinical isolates assessed as meropenem MIC incubated for 16 to 18 hrs by broth microdilution method. The class given is functional. The following applies: time 16-18 hrs.
For assay [8], the system named is Klebsiella pneumoniae. The assay is described as follows: Antibacterial activity against Klebsiella pneumoniae BAA2470 expressing blaNDM-1 clinical isolates assessed as meropenem MIC incubated for 16 to 18 hrs by broth microdilution method. The following applies: time 16-18 hrs. Format: functional. On the technique in general: Dilution methods test growth across graded concentrations, often in twofold steps.

The subject of assay [9] is Escherichia coli. Description: Antibacterial activity against Escherichia coli C1580 expressing blaIMP-1 clinical isolates assessed as meropenem MIC incubated for 16 to 18 hrs by broth microdilution method. Format: functional. The following applies: time 16-18 hrs.
In assay [10] the test system is Escherichia coli. The assay is described as follows: Antibacterial activity against Escherichia coli C1541 expressing blaVIM-2 clinical isolates assessed as meropenem MIC incubated for 16 to 18 hrs by broth microdilution method. Format: functional. The following applies: time 16-18 hrs.
In assay [11] the test system is Escherichia coli. Description: Antibacterial activity against Escherichia coli BAA2452 expressing blaNDM-1 clinical isolates assessed as fold potentiation incubated for 16 to 18 hrs by broth microdilution method. Format: functional. The following applies: time 16-18 hrs.
Assay [12] deals with Enterobacterales. Description: Antibacterial activity against Carbapenem-Resistant Enterobacterales 19 expressing blaNDM-1 clinical isolates assessed as fold potentiation incubated for 16 to 18 hrs by broth microdilution method. The class given is functional. The settings on record: time 16-18 hrs.
The subject of assay [13] is Klebsiella pneumoniae. The assay is described as follows: Antibacterial activity against Klebsiella pneumoniae BAA2470 expressing blaNDM-1 clinical isolates assessed as fold potentiation incubated for 16 to 18 hrs by broth microdilution method. The settings on record: time 16-18 hrs. Format: functional.
Assay [14] relates to Escherichia coli. The assay is described as follows: Antibacterial activity against Escherichia coli C1580 expressing blaIMP-1 clinical isolates assessed as fold potentiation incubated for 16 to 18 hrs by broth microdilution method. The class given is functional. The settings on record: time 16-18 hrs.
In assay [15] the test system is Escherichia coli. Description: Antibacterial activity against Escherichia coli C1541 expressing blaVIM-2 clinical isolates assessed as fold potentiation incubated for 16 to 18 hrs by broth microdilution method. Format: functional. The settings on record: time 16-18 hrs.

In general, IC50 refers to the point on the concentration scale where inhibition reaches its midpoint. As usually defined, the MIC is the least concentration at which growth counts as inhibited. As to `CCc1ccc(C(c2cccc(-n3cc(-c4cccc(N)c4)nn3)c2)P(=O)(O)O)cc1` (stereo not drawn), the IC50 is 170 nM in assay [1]; 650 nM in assay [2]; 1370 nM in assay [3]; 6 nM in assay [4]; 7 nM in assay [5]. Besides, the MIC in the assay with Escherichia coli [6] came to 8 µg/mL; in the assay on Enterobacterales [7], 8 µg/mL; in the assay with Klebsiella pneumoniae [8], 64 µg/mL; in the assay with Escherichia coli [9] it was 4 µg/mL; in the assay with Escherichia coli [10], 1 µg/mL. Further, the “fold change (FC)” value is reported as 16 in the assay on Escherichia coli [11]; 8 in the assay on Enterobacterales [12]; >2 in the assay on Klebsiella pneumoniae [13]; 8 in the assay on Escherichia coli [14]; 16 in the assay on Escherichia coli [15].
In the case of `Cc1ccc(C(c2cccc(-n3cc(-c4cccc(N)c4)nn3)c2)P(=O)(O)O)cc1` (stereo not drawn), the IC50 in assay [1] was determined as 27 nM; in assay [2], 1070 nM; in [3] it was 620 nM; in [4] it was 0.82 nM; in assay [5], 1 nM. The MIC in the assay on Escherichia coli [6] amounted to 8 µg/mL; in the assay on Enterobacterales [7] it was 8 µg/mL; in the assay with Klebsiella pneumoniae [8], 64 µg/mL; in the assay on Escherichia coli [9], 1 µg/mL; in the assay with Escherichia coli [10] it was 1 µg/mL. The “fold change (FC)” value is reported as 16 in the assay on Escherichia coli [11]; 8 in the assay on Enterobacterales [12]; >2 with Klebsiella pneumoniae [13]; 32 in the assay on Escherichia coli [14]; 16 in the assay with Escherichia coli [15].
For `Nc1cccc(-c2cn(-c3cccc(C(c4ccc(F)cc4)P(=O)(O)O)c3)nn2)c1` (stereo not drawn), the IC50 came out at 700 nM in [1]; 2000 nM in assay [2]; 440 nM in [3]; 6 nM in assay [4]; 1 nM in assay [5]. Besides, the MIC was 16 µg/mL in the assay with Escherichia coli [6]; 8 µg/mL in the assay with Enterobacterales [7]; 64 µg/mL with Klebsiella pneumoniae [8]; 2 µg/mL with Escherichia coli [9]; 0.5 µg/mL in the assay with Escherichia coli [10]. The “fold change (FC)” value with Escherichia coli [11] was 8; in the assay with Enterobacterales [12], 8; in the assay on Klebsiella pneumoniae [13], >2; in the assay on Escherichia coli [14], 16; in the assay on Escherichia coli [15], 32.
Take `Nc1cccc(-c2cn(-c3cccc(C(c4ccc(-c5ccc(Br)cc5)cc4)P(=O)(O)O)c3)nn2)c1` (stereo not drawn): the IC50 is 12000 nM in [1]; 4900 nM in [2]; 1710 nM in assay [3]; 8 nM in assay [4]; 2 nM in assay [5]. Moreover, the MIC is 8 µg/mL in the assay on Escherichia coli [6]; 8 µg/mL in the assay with Enterobacterales [7]; 64 µg/mL in the assay on Klebsiella pneumoniae [8]; 1 µg/mL in the assay with Escherichia coli [9]; 2 µg/mL with Escherichia coli [10]. The “fold change (FC)” value was 16 with Escherichia coli [11]; 8 with Enterobacterales [12]; >2 in the assay on Klebsiella pneumoniae [13]; 32 in the assay with Escherichia coli [14]; 8 with Escherichia coli [15].
Take `CC(C)(C)c1ccc(C(c2cccc(-n3cc(-c4cccc(N)c4)nn3)c2)P(=O)(O)O)cc1` (stereo not drawn): the IC50 in [1] turned out to be 1370 nM; in assay [2], 180 nM; in assay [3], 710 nM; in assay [4], 9 nM; in assay [5] it was 1 nM. The MIC in the assay with Escherichia coli [6] worked out at 16 µg/mL; with Enterobacterales [7], 8 µg/mL; in the assay with Klebsiella pneumoniae [8] it was 64 µg/mL; with Escherichia coli [9], 2 µg/mL; in the assay with Escherichia coli [10], 2 µg/mL. In addition, the “fold change (FC)” value with Escherichia coli [11] was 8; with Enterobacterales [12], 8; in the assay on Klebsiella pneumoniae [13] it was >2; in the assay with Escherichia coli [14] it was 16; in the assay with Escherichia coli [15] it was 8.
`Nc1cccc(-c2cn(-c3cccc(C(c4ccc(Br)cc4)P(=O)(O)O)c3)nn2)c1` (stereo not drawn): the IC50 in [1] is 440 nM; in [2], 660 nM; in assay [3], 200 nM; in [4], 7 nM; in assay [5], 3 nM. Further, the MIC was determined as 16 µg/mL in the assay with Escherichia coli [6]; 8 µg/mL in the assay on Enterobacterales [7]; 64 µg/mL with Klebsiella pneumoniae [8]; 4 µg/mL in the assay with Escherichia coli [9]; 1 µg/mL in the assay with Escherichia coli [10]. Further, the “fold change (FC)” value was 8 in the assay with Escherichia coli [11]; 8 in the assay on Enterobacterales [12]; >2 in the assay on Klebsiella pneumoniae [13]; 8 with Escherichia coli [14]; 16 in the assay on Escherichia coli [15].
Turning to `CCCc1ccc(C(c2cccc(-n3cc(-c4cccc(N)c4)nn3)c2)P(=O)(O)O)cc1` (stereo not drawn), the IC50 in assay [1] was 190 nM; in assay [2], 460 nM; in assay [3], 530 nM; in [4] it was 14 nM; in assay [5], 0.56 nM. In addition, the minimum inhibitory concentration (MIC) stood at 16 µg/mL in the assay with Escherichia coli [6]; 8 µg/mL with Enterobacterales [7]; 64 µg/mL in the assay with Klebsiella pneumoniae [8]; 2 µg/mL in the assay on Escherichia coli [9]; 2 µg/mL with Escherichia coli [10]. The “fold change (FC)” value in the assay on Escherichia coli [11] was 8; with Enterobacterales [12], 8; with Klebsiella pneumoniae [13], >2; with Escherichia coli [14] it was 16; in the assay with Escherichia coli [15] it was 8.
Regarding `Cc1ccc(-c2ccc(C(c3cccc(-n4cc(-c5cccc(N)c5)nn4)c3)P(=O)(O)O)cc2)cc1` (stereo not drawn), the IC50 turned out to be 430 nM in assay [1]; 590 nM in assay [2]; 660 nM in [3]; 0.66 nM in assay [4]; 2 nM in assay [5]. Moreover, the MIC stood at 16 µg/mL in the assay with Escherichia coli [6], 8 µg/mL in the assay on Enterobacterales [7], 64 µg/mL in the assay on Klebsiella pneumoniae [8] and 2 µg/mL in the assay on Escherichia coli [9]. The “fold change (FC)” value in the assay on Escherichia coli [11] is 8; with Enterobacterales [12], 8; in the assay with Klebsiella pneumoniae [13] it was >2; in the assay on Escherichia coli [14], 16.
Take `CCCCc1ccc(C(c2cccc(-n3cc(-c4cccc(N)c4)nn3)c2)P(=O)(O)O)cc1` (stereo not drawn): the IC50 in assay [1] was determined as 295 nM; in assay [2] it was 150 nM; in assay [3], 460 nM; in assay [4] it was 15 nM; in assay [5] it was 1 nM. Also, the MIC was determined as 8 µg/mL in the assay on Escherichia coli [6]; 8 µg/mL with Enterobacterales [7]; 64 µg/mL with Klebsiella pneumoniae [8]; 1 µg/mL in the assay with Escherichia coli [9]; 2 µg/mL in the assay with Escherichia coli [10]. The “fold change (FC)” value was 16 in the assay on Escherichia coli [11]; 8 in the assay on Enterobacterales [12]; >2 in the assay on Klebsiella pneumoniae [13]; 32 in the assay on Escherichia coli [14]; 8 in the assay with Escherichia coli [15].
Take `CSc1ccc(C(c2cccc(-n3cc(-c4cccc(N)c4)nn3)c2)P(=O)(O)O)cc1` (stereo not drawn): the IC50 is 110 nM in assay [1]; 500 nM in assay [2]; 640 nM in assay [3]; 1 nM in assay [4]; 0.12 nM in assay [5]. Further, the MIC amounted to 16 µg/mL with Escherichia coli [6]; 8 µg/mL in the assay with Enterobacterales [7]; 64 µg/mL with Klebsiella pneumoniae [8]; 2 µg/mL with Escherichia coli [9]; 1 µg/mL in the assay on Escherichia coli [10]. Further, the “fold change (FC)” value with Escherichia coli [11] is 8; with Enterobacterales [12], 8; in the assay on Klebsiella pneumoniae [13] it was >2; in the assay on Escherichia coli [14], 16; in the assay with Escherichia coli [15], 16.

The record behind these values is ChEMBL document CHEMBL5620345, “Metal binding pharmacophore click-derived discovery of new broad-spectrum metallo-β-lactamase inhibitors” (Eur J Med Chem, 2023).
